Experimental findings from ChEMBL document CHEMBL1143203, “Targeting the inverted CCAAT Box-2 of the topoisomerase IIalpha gene: DNA sequence selective recognition by a polyamide-intercalator as a staggered dimer” (Bioorg Med Chem, 2008) are described below.

Calls of active or inactive are those of the source. No cut-off for these calls is given here. A value given as a limit tells only on which side of the number the result lay.

The subject of experiment [1] is Nucleic Acid. Description: Binding affinity to topoisomerase 2-alpha promoter AAGCTA DNA by thermal denaturation assay. In kind it is nucleic-acid assay.
Experiment [2] concerns Nucleic Acid. Put plainly: Binding affinity to topoisomerase 2alpha promoter AAATTT 10 bp DNA by thermal denaturation assay. The format is nucleic-acid assay.
Experiment [3] concerns Nucleic Acid. Put plainly: Binding affinity to topoisomerase 2-alpha promoter AAATTT 12 bp DNA by thermal denaturation assay. The format is nucleic-acid assay.
Experiment [4] can be described thus: Binding affinity to biotinylated ACGCGT DNA.
The nature of experiment [5]: Binding affinity to biotinylated AAGCTT DNA.
Experiment [6] is described as follows: Binding affinity to biotinylated AAATTT DNA.
Experiment [7] can be described thus: Inhibition of NF-Y binding to 5'-[32P]ICB2-containing DNA fragment at 50 uM after 2 hrs by electrophoretic mobility shift assay. On the technique in general: A gel shift assay detects complexes by their altered migration in electrophoresis.
Experiment [8] relates to NIH3T3. Description: Induction of topoisomerase 2-alpha expression in mouse NIH3T3 cells at 10 uM after 24 hrs by Western blotting assay. The format is functional, cell-based. A general note: A western blot detects proteins with antibodies after separation by electrophoresis.
The test system of experiment [9] is Nucleic Acid. Description: Binding affinity to topoisomerase 2alpha promoter ATGCAT DNA by thermal denaturation assay. In kind it is nucleic-acid assay.
For experiment [10], the system named is Nucleic Acid. Description: Binding affinity to topoisomerase 2alpha promoter AAATTT 11 bp DNA by thermal denaturation assay. In kind it is nucleic-acid assay.

For `CN(CCCN)CCCNC(=O)c1cc(NC(=O)c2cc(NC(=O)c3nc(NC=O)cn3C)cn2C)cn1C`, the values for the ΔTm in experiment [1] and in experiment [2] were greater than 22 °C and 10 °C, respectively.
For `CN(CCCNC(=O)CCCCCCCN1C(=O)c2cccc3cccc(c23)C1=O)CCCNC(=O)c1cc(NC(=O)c2cc(NC(=O)c3nc(NC=O)cn3C)cn2C)cn1C`, the figures for the ΔTm in experiment [1] and in experiment [3] were 8.4 °C and 3.8 °C, respectively. Further, the K in experiment [4] was 2.8 10^5/M; in [5], 5.6 10^6/M; in [6], 1.5 10^5/M. Further, the result in experiment [7] and in [8] was Active.
As to `CN(C)CCCNC(=O)c1cc(NC(=O)c2cc(NC(=O)c3nc(NC=O)cn3C)cn2C)cn1C`, the ΔTm in [1] was found to be 5.1 °C; in experiment [9], 11 °C; in experiment [10], 3.5 °C. Further, the results for the K in [4], in experiment [5] and in experiment [6] were 9.5 10^4/M, 5.5 10^6/M and 4.7 10^5/M, respectively. In addition, in experiment [7], the outcome was inactive.

What is called ΔTm is the change in melting temperature against a reference sample.
